From ChEMBL document CHEMBL4610087, “Swinhopeptolides A and B: Cyclic Depsipeptides from the Sponge Theonella swinhoei That Inhibit Ras/Raf Interaction” (J Nat Prod, 2020)

Assay: Inhibition of Ras-Raf (unknown origin) protein-protein interaction incubated for 4 hrs by cell based-BRET assay
Details: Homo sapiens

Structure (SMILES)	IC50
C/C=C(\NC(=O)[C@@H](CO)NC(=O)/C(C)=C/C=C/C(C)=C/C(C)CC)C(=O)N[C@H](C(=O)N[C@H](C(=O)N[C@H]1C(=O)N[C@H](COC)C(=O)NCC(=O)N[C@@H](C)C(=O)N(C)[C@@H]([C@@H](C)O)C(=O)N[C@H]([C@H](OC)c2ccc(O)cc2)C(=O)N2CCC[C@H]2C(=O)O[C@@H]1C(C)C)[C@@H](C)[C@@H](C)C(N)=O)[C@H](C)N (some centres not stated)	8.5 µM
C/C=C(\NC(=O)[C@@H](CO)NC(=O)[C@@](C)(O)[C@H](O)/C=C\C(C)=C\[C@H](C)CC)C(=O)N[C@H](C(=O)N[C@H](C(=O)N[C@H]1C(=O)N[C@H](COC)C(=O)NCC(=O)N[C@@H](C)C(=O)N(C)[C@@H]([C@@H](C)O)C(=O)N[C@H]([C@H](OC)c2ccc(O)cc2)C(=O)N2CCC[C@H]2C(=O)O[C@@H]1C(C)C)[C@@H](C)[C@@H](C)C(N)=O)[C@H](C)N	5.8 µM
